Source: patent US8017350B2, “Glimepiride- and insulin-induced glycosylphosphatidylinositol-specific phospholipase C regulation” (Sanofi-Aventis Deutschland GmbH, priority 2004, dated 2011)

Key:
Format in all cases: cell-based
[1] = tested on: GPI-proteins 5′-Nuc, Gce1 and aP in isolated rat adipocytes; assay: localization of lipolytically cleaved and uncleaved GPI-proteins at hcDIGs, IcDIGs and total plasma membranes (TX-114 partitioning)
[2] = tested on: glucose transport, rat adipocytes; assay: Glucose transport in rat adipocytes; details: GPI-2350 50 μM
Method: Glucose transport was determined as described in “Müller, G. et al., (1994) J. Cell Biol. 126: 1267-1276” by incubation of 10,000-20,000 washed adipocytes with 2-deoxy-D[2,6-^3H]glucose at 50 μM final conc. (0.33 μCi/ml) in 50-μl portions for 20 min at 37° C. in the absence or presence of 20 μM cytochalasin B.
Subsequently, we studied whether the differential effects of GPI-PLC inhibition on IRS-1 tyrosine phosphorylation in response to insulin and glimepiride is reflected in their metabolic activity in insulin target cells. For this, isolated rat adipocytes were pretreated with GPI-2350 prior to challenge with either stimulus, and then assayed for glucose transport and isoproterenol-induced lipolysis (FIG. 8). […] These differential effects of GPI-PLC inhibition were confirmed by analysis of the effect of GPI-2350 on the inhibition of isoproterenol-induced lipolysis by glimepiride and insulin when measured as release of NBD-FA instead of glycerol from rat adipocytes prelabeled with this fluorescent fatty acid derivative (FIG. 9).
Table 3: Isolated rat adipocytes were incubated in the presence of methyl-β-cyclodextrin (m-β-CD, 10 mM, 50 min), CBDP (300 μM, electroporation, followed by washing and subsequent incubation for 30 min), PIG41 (10 μM, 15 min), sodium orthovanadate (1 mM, 15 min), trypsin (10 μg/ml, 15 min followed by treatment with 0.5 M NaCl and subsequent washing) and N-ethylmaleimide (1 mM, 5 min followed by addition of DTT). After addition of GPI-2350 (50 μM final conc.) to one half of the adipocyte suspension and further incubation (60 min, 37° C.), portions of the cells were assayed for 5′-Nuc activity in the isolated IcDIGs. The increase in 5′-Nuc during the basal incubation was set at 100 arb. units. Other portions of the cells (after 15 min incubation) were assayed for glucose transport which was set at 100 arb. units for the basal incubation. Means+SD of at least 3 independent cell incubations with activity measurements in triplicate each are given.
FIG. 8: Effect of GPI-2350 on the glimepiride/insulin-induced metabolic activity. Isolated rat adipocytes were treated (5 min, 37° C.) without or with GPI-2350 (Panel A, 50 μM; Panel B, increasing conc.; Panel C, 5 μM, 50 μM) and then incubated (15 min, 37° C.) in the absence or presence of insulin (Ins, 10 nM) or glimepiride (Gli, 20 μM or increasing conc.) as indicated. The adipocytes were then assayed for glucose transport and isoproterenol-induced lipolysis. The activity is given relative to the absence of GPI-2350 in the control reaction (Panels A, basal) or in the insulin- and glimepiride-stimulated state (Panels B and C, set at 100). Means+SD of at least 5 independent cell incubations with activity measurements in triplicate each are given.

[3] = tested on: lipolysis, rat adipocytes; assay: Isoproterenol-induced lipolysis in rat adipocytes; details: GPI-2350 50 μM
Method: Electroporation was performed as described in “Müller, G. et al., (2000) Mol. Cell. Biol. 20: 4708-4723”. Lipolysis was determined as release of glycerol or fluorescent NBD-FA from prelabeled and isoproterenol-stimulated adipocytes as described in “Müller, G. et al., (2003) Biochimie 85: 1245-1256”. Gce1 was detected by photolabeling of solubilized plasma membranes or hc/lcDIGs (10-50 μg protein) with 8-N3—[^32P]cAMP and subsequent phosphorimaging as described in “Müller, G. et al., (1994) Biochemistry 33: 12149-12159”. 5′-Nuc, aP and AChE activities were measured according to “Eliakim, R. et al., (1990) Biochim. Biophys. Acta 1355: 293-302”. Protein was determined using the BCA protein determination kit from Pierce (Rockford, Ill.) and BSA as calibration standard. SDS-PAGE was performed using precast gels (Novex, San Diego, Calif.; 10% Bis-Tris resolving gel, morpholinopropanesulfonic acid-SDS running buffer). Lumiimages were evaluated on a LumiImager using LumiImager software (Roche Diagnostics). Phosphor- and fluorescence images were processed and quantified using the Storm 860 PhosphorImager system (Molecular Dynamics, Gelsenkirchen, Germany). Figures were constructed using the ADOBE PHOTOSHOP software (Adobe Systems, Mountain View, Calif.). […]

[4] = amphiphilic version in hcDIGs of basal adipocytes set at 100, GPI-2350 50 μM, insulin 10 nM, glimepiride 20 μM

CCCCCCCCCCCCP1(=O)O[C@@H]2[C@H](O)[C@@H](O)[C@H](O)[C@@H](O)[C@@H]2O1 (some centres unmarked) [GPI-2350, myo-inositol-1,2-cyclo-dodecylphosphonic acid]
effect on insulin/glimepiride-induced increase in hydrophilic GPI-proteins in plasma membranes ([1]; 50 μM): completely blocked
aP hydroph. IcDIGs [1, 4]: 2 ± 2 arb. units
aP hydroph. hcDIGs [1, 4]: 10 ± 1 arb. units
glimepiride-stimulated glucose transport with GPI-2350 [2]: to lower than control values
glimepiride inhibition of lipolysis with GPI-2350 [3]: to lower than control values
